From patent US20060171945A1, “Ip receptor antagonists for the treatment of pathological uterine conditions” (priority 2003, published 2006)
Where “and” joins values, the source holds several entries; their conditions need not be identical. Equal values may be shown once.

What was measured:
[1] = tested on: endometrial epithelial and stromal cells; conditions: previously reported; cited from earlier work
[2] = tested on: FP receptor; conditions: cited from earlier work
[3] = target: T1, COX-2 (Homo sapiens, UniProt P35354); conditions: cited from earlier work
T1 sequence (P35354 18-604): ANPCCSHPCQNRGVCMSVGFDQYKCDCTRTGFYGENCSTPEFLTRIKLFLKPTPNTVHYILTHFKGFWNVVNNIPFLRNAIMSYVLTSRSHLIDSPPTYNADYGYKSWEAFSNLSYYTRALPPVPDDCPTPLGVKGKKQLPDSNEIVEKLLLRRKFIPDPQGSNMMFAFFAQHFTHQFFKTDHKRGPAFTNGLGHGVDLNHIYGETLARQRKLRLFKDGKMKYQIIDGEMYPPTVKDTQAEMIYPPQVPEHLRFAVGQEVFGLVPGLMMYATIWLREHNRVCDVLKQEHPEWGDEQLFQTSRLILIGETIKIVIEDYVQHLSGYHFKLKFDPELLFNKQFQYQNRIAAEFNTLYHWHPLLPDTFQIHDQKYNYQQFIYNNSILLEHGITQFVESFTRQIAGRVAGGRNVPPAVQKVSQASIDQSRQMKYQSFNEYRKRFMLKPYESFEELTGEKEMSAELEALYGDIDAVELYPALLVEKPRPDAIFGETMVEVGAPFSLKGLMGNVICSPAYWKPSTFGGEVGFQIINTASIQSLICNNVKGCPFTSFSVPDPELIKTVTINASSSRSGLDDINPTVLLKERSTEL

[4] = target: T2, IP receptor (Homo sapiens, UniProt P43119); assay: Whole tissue cyclic AMP assay in endometrial biopsy tissue; type: cell-based; conditions: 100 nM iloprost, 10 min, n=4
T2 construct: from tissue; host or cells: minced human endometrial biopsy tissue
T2 sequence (P43119 whole entry): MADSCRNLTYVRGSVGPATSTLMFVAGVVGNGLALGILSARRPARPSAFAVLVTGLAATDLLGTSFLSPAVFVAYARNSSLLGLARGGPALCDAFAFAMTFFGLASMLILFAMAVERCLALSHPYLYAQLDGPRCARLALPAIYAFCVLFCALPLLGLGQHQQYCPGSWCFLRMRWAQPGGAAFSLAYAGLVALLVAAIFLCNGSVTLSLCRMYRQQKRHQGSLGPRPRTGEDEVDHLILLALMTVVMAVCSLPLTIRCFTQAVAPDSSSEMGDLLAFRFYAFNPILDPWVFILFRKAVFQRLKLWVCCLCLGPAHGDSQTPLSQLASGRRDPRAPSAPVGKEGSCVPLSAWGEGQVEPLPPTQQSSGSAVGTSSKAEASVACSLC
Method: Endometrial biopsies from across the menstrual cycle (n=8) were minced finely with scissors and divided into three portions. The tissue was incubated is overnight at 37° C. in a humidified 5% CO2 incubator in 2 ml RPMI (Sigma, UK) medium containing, 2 mmol” L-glutamine, 100 IU penicillin and 100 μg streptomycin and 3 μg/ml indomethacin (Sigma, Poole, UK). Following overnight incubation, the tissue was incubated in the same medium containing 1-methyl-3-isobutylxanthine (Sigma) at 37° C. for 30 min. It was then treated with control medium or 100 nM iloprost (a gift from Schering Health Care, Burgess Hill, UK) for 10 min. at 37° C. and lysed in 0.1M HCl and frozen until assayed. cAMP concentration was measured by ELISA (Biomol, Affiniti, Exeter, UK) according to the manufacturer's instructions and normalised to protein concentration determined by a modification of the method of Lowry (Bio-Rad, Hemel Hempstead, UK).

[5] = target: T2, IP receptor; assay: Cyclic AMP assay in Ishikawa cells; type: cell-based; conditions: 100 nM iloprost, 10 min, n=3, mean±SEM
Text: (§1) The Ishikawa endometrial epithelial cell line (Ishikawa cells) and endometrial stromal (ES) cells were propagated in DMEM F12 culture medium with glutamax (Invitrogen Ltd., Paisley, UK) supplemented with 10% foetal bovine serum (PAA Laboratories Ltd., Yeovil, UK). Endometrial stromal cells were a generous gift from Professor R W Kelly and they were derived from human endometrial biopsy tissue as described previously (Dunn et al (2002) J Clin Endocrinol Metab 87, 1898-1901). For cyclic AMP assay, cells were grown in 6 well plates to 70% confluence. They were starved overnight in serum free medium in the presence of indomethacin (3 μg/ml). Cells were then incubated in the same medium containing 1-methyl-3-isobutylxanthine at 37° C. for 30 minutes and treated with control medium or 100 nM iloprost for 10 minutes at 37° C. […] Data are presented as mean±SEM percentage increase in cAMP after treatment with iloprost, where the increase was calculated relative to the control samples. […] Proliferation was assessed using a colorimetric method, the CellTiter 96 Aqueous One Solution Cell Proliferation Assay (Promega, Southampton, UK) according to manufacturer's instructions. Twenty microlitres of the assay reagent (containing a tetrazolium compound, inner salt and an electron coupling reagent) were added to each well and samples were incubated at 37° C. for 2 hours and plates were read at 492 nm. […]

[6] = target: T2, IP receptor; assay: Cyclic AMP assay in endometrial stromal (ES) cells; type: cell-based; conditions: 100 nM iloprost, 10 min, n=3, mean±SEM
Text: as §1

[7] = tested on: Ishikawa endometrial epithelial cell line; assay: Proliferation assay (CellTiter 96) in Ishikawa cells; type: cell-based, human; conditions: 100 nM iloprost, 24 hours, n=5, mean±SEM
Text: as §1

[8] = tested on: endometrial stromal (ES) cells; assay: Proliferation assay (CellTiter 96) in ES cells; type: cell-based, human; conditions: 100 nM iloprost, 24 hours, n=6, mean±SEM
Text: as §1

[9] = target: T3, PGES (Homo sapiens, UniProt O14684); conditions: read-out: IC50 for inhibition of PGES activity; cited from earlier work
T3 sequence (O14684 1-152): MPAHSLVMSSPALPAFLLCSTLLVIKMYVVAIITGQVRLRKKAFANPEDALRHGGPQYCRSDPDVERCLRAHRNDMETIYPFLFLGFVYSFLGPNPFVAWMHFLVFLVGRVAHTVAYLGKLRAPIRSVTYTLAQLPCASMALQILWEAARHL

[10] = tested on: TP; conditions: 10 μM; cited from earlier work
[11] = tested on: DP; conditions: 10 μM; cited from earlier work
[12] = target: EP2 (Homo sapiens, UniProt P43116); conditions: 10 μM; cited from earlier work
Chain of EP2 (P43116 whole entry): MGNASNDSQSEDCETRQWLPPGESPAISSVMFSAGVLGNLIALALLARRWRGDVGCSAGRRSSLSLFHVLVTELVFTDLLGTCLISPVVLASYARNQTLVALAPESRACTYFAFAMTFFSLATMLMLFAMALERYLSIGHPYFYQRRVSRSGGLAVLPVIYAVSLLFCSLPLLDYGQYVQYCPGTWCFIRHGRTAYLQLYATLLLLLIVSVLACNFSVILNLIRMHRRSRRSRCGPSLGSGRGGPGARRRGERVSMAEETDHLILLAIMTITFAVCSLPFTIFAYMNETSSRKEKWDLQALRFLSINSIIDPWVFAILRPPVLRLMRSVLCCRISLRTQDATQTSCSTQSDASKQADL

[13] = tested on: EP4; conditions: 10 μM; cited from earlier work

CCCCC[C@H](O)/C=C/[C@@H]1[C@@H](C/C=C\CCCC(=O)O)[C@@H](O)C[C@H]1O [PGF2α]
increase in proliferation [1]: 31%

CCCCNC(=O)NS(=O)(=O)c1ccc(C)cc1 [tolbutamide]
FP receptor antagonist potency [2]: very weak antagonists

CS(=O)(=O)Nc1ccc([N+](=O)[O-])cc1Oc1ccccc1 [Nimesulide, N-(4-nitro-2-phenoxyphenyl) methanesulfonamide]
specificity for COX-2 inhibition over COX-1 inhibition [3]: 100 fold

CC#CCC(C)[C@H](O)/C=C/[C@@H]1[C@H]2C/C(=C/CCCC(=O)O)C[C@H]2C[C@H]1O (stereo partly shown) [iloprost]
fold increase in cAMP generation ([4]; samples from proliferative phase of the menstrual cycle): 4.83±0.74 fold | fold increase in cAMP generation ([4]; samples from secretory phase of the menstrual cycle): 2.07±0.38 fold and 2.07±0.39 fold | cAMP generation, of control values [5]: 166%±27.6% | cAMP generation, of control values [6]: 37,936%±18,464% | proliferation, of control values [7]: 109.4%±2.4% | proliferation, of control values [8]: 112%±3.8%

CCCCC[C@H](O)/C=C/[C@H]1[C@H](O)CC(=O)[C@@H]1C/C=C\CCCC(=O)O [PGE2]
increase in proliferation [1]: 25%

CS(=O)(=O)Nc1cc2c(cc1Sc1ccc(F)cc1F)C(=O)CC2 [L 475 L337]
specificity for COX-2 inhibition over COX-1 inhibition [3]: 500 fold

CCCCC/C=C\C\C=C/C=C/C=C/[C@@H](SC[C@H](NC(=O)CC[C@H](N)C(=O)O)C(=O)NCC(=O)O)[C@@H](O)CCCC(=O)O [leukotriene C4]
IC50 [9]: 5 µM

CSc1ccc(/C=C2/C(C)=C(CC(=O)O)c3cc(F)ccc32)cc1 [sulindac sulphide]
IC50 [9]: 80 µM

Cc1ccc(S(=O)(=O)NC(=O)NN2CCCCCC2)cc1 [tolazamide]
FP receptor antagonist potency [2]: very weak antagonists

O=C(O)CCC/C=C\C[C@@H]1[C@@H](/C=C/[C@H](O)C2Cc3ccccc3C2)[C@@H](F)C[C@@H]1O [AL-8810, (5Z, 13E)-(9S, 11S,15R)-9,15-dihydroxy-11-fluoro-15-(2-indanyl)-16, 17, 18, 19, 20-pentanor-5,13-prostadienoic acid]
inhibition of functional responses of TP receptor [10]: not to significantly inhibit | inhibition of functional responses of DP receptor [11]: not to significantly inhibit | inhibition of functional responses of EP2 receptor [12]: not to significantly inhibit | inhibition of functional responses of EP4 receptor [13]: not to significantly inhibit | FP receptor antagonist potency [2]: micromolar potency
